Experiments:
blood flow = conditions: Prostaglandins, 25, 549 (1983); cited from earlier work
blood platelet = conditions: Drugs, 18, 439 (1979); cited from earlier work
[1] = system: PGI2-like substance in vessel walls; assay: Influence on production of PGI2-like substance in vessel walls (ADP aggregation with carotid artery ring); format: in vivo, rat (male Wistar-ST strain); conditions: for Aggregation rate with ADP when carotid artery ring added: 1 hour, 10 μM ADP
Method: Male Wistar-ST strain rats with an average weight of about 250 g were used as experimental animals. After fasted for 18 hours, 6.3 ml of blood sample were obtained from corotid artery and immediately thereafter 0.7 ml of an anticoagulant (3.8% sodium citrate) was added and the sample was centrifuged at 200×g over 15 minutes to take platelet-rich plasma (PRP). The same procedures as above were carried out, using 5 to 6 rats, whereby 5-6 ml as normal PRP were stored and employed.
Reference aggregation values were determined by pouring 1 ml each of stored PRP into plastic test tubes, incubating them at 22° C. for 10 minutes and then determining aggregation rate. As an aggregation inducing agent, one employed 10 μM ADP (available from Sigma Co., Inc.)
A suspension of the compound of this invention or aspirin in a 1% aqueous solution of tragacanth was orally given to animals. After 1 hour, 5 mg of carotid artery were cut out in a ring shape and placed into a plastic test tube together with 1 ml of stored PRP. After incubated at 22° C. for 10 minutes, aggregation rate was determined.
Also, non-medicated groups were similarly treated and aggregation rate was determined.
Determination of blood platelet aggregation rate was made by means of an aggregometer.

mice = assay: Anti-thrombotic activity: arachidonic acid-induced mortality in mice; format: in vivo, mouse (male ICR-JCL strain); conditions: for Survival time of dead mice: arachidonic acid 100 mg/Kg i.v.; for Mortality: arachidonic acid 100 mg/Kg i.v. after 1 hour
Method: Male ICR-JCL strain mice with an average body weight of about 25 g and male New Zealand White rabbits with an average body weight of about 3 Kg were used.
Where mice were used as experimental animals, a suspension of the test compound indicated in Table 3 in a 1% tragacanth aqueous solution was orally administered to animals at 20 ml/Kg. One hour after the administration, an arachidonic acid (PL-biochemical Co., Inc.) solution dissolved in a 0.1M sodium carbonate aqueous solution was intravenously given at 100 mg/Kg. Evaluation of activity was effected with the time from the administration of arachidonic acid up to the death of animals as well as mortality.

blood platelets [2] = assay: Activity to inhibit the aggregation of blood platelets (collagen, ex vivo after oral administration); format: in vivo, rat (male Wistar-ST strain); conditions: Rattus norvegicus, Platelet, po, read-out: Inhibitory rate of blood platelet aggregation
Method: Male Wistar-ST strain rats of an average body weight of 250 g were used, a group consisting of 8 animals. The test compound indicated in the following Table 1 was orally administered to rats in the form of a suspension in a 1% tragacanth aqueous solution at 4 ml/Kg (the test compound 10 mg/Kg).
One hour after the administration, blood samples were obtained from the carotid artery by means of a cannule. […] Tubes were turned upside-down and then subjected to centrifugation at 200×g over 15 minutes to assign the supernatant as a platelet-rich plasma (PRP). The residue was further centrifuged at […] over 15 minutes to assign the supernatant as a platelet-poor plasma (PPP). These supernatants were applied for determining the ability to aggregate blood platelets. […] As an aggregation inducing agent, collagen (availale from Hormon-chemie A.G.) was used at a concentration of 7 to 10 μg/ml.
Inhibitory rate to aggregate blood platelets was calculated according to the following equation: [formula] A: […] in the group to which the 1% tragacanth solution alone was given (Control)
B: Aggregation rate in the group to which the tragacanth solution of the test compound was given.

blood platelets [3] = assay: Activity to inhibit the blood platelet adhesion (glass bead method); format: cell-based, rat (male Wistar-ST strain); conditions: Rattus norvegicus, read-out: Inhibitory rate of blood platelet adhesion
Method: As experimental animals, there were used male Wistar-ST strain rats of an average body weight of 250 g.
Blood samples were obained from carotid arteries by means of a cannule and immediately admixed with sodium citrate at a volume ratio of 1/10. The mixture was centrifuged at 200×g over 15 minutes to collect the supernatant (platelet-rich plasma: PRP). The PRP was then centrifuged at 2000×g over 15 minutes and the supernatant was removed to give blood platelet pellet.
To the resultant blood platelet pellet was added a 15 mM tris.HCl buffer solution with EDTA (pH 7.4) to resuspend blood platelets therein and then one applied centrifugation at 2000×g over 15 minutes and the supernatant was removed. The resultant washed blood platelets were added to a 0.3 mM tris.HCl buffer solution with CaCl2 (pH 7.4) to resuspend blood platelets therein, whereby there was prepared a blood platelet suspension adjusted to five hundred thousand platelets/μl. To 2 ml of the blood platelet suspension were added 2 μl of a methanolic solution of each test compound and incubation was effected for 15 minutes. Then blood platelet adhesion was determined according to a glass bead method by using a timing blood suction apparatus for determining the blood platelet adhesion.
The number of blood platelets was counted by means of a blood platelet counter.
Inhibitory rate of blood platelet adhesion was calculated according to the following equation: [formula] A: Blood platelet number in the blood platelet suspension passed through a control column
B: Blood platelet number in the blood platelet suspension passed through a bead-packing column

brain = conditions: Am. J. Physiol., 243, H416 (1982); cited from earlier work

Row | Compound | activity to increase blood flow (in words) (blood flow) | activity to inhibit blood platelet aggregation (in words) (blood platelet) | Aggregation rate with ADP when carotid artery ring added ([1]; 30 mg/Kg oral) | Aggregation rate with ADP when carotid artery ring added ([1]; 100 mg/Kg oral) | inhibition of ADP aggregation with PGI2-like substances existing in carotid artery ring (in words) ([1]; from Table 5) | Survival time of dead mice (mice; 100 mg/Kg oral) | Mortality (mice; 100 mg/Kg oral) | Survival time of dead mice (mice; 300 mg/Kg oral) | Mortality (mice; 300 mg/Kg oral) | inhibition at 30 mg/kg (blood platelets [2]) | inhibition at 100 mg/kg (blood platelets [2]) | inhibition at 300 µM (blood platelets [3]; 3·10^-4 M) | inhibition at 30 µM (blood platelets [3]; 3·10^-5 M) | inhibition at 3 µM (blood platelets [3]; 3·10^-6 M) | inhibition at 0.3 µM (blood platelets [3]; 3·10^-7 M) | topical blood flow in brain (in words) (brain)
1 | CC(=O)Oc1ccccc1C(=O)O [Aspirin, aspirin] | does not show at all the activity to increase blood flow | show the activity to inhibit blood platelet aggregation | 45.7% | 58.3% | said phenomena could not be observed | 322 ± 103 s | 100% | 180 ± 67 s | 37.5% | 67.5% | 100% | 4% | 5.3% | 8.4% | 3.5% | 
2 | COc1ccc2c(c1)c(CC(=O)O)c(C)n2C(=O)c1ccc(Cl)cc1 [indomethacin] | does not show at all the activity to increase blood flow | show the activity to inhibit blood platelet aggregation |  |  |  |  |  |  |  |  |  |  |  |  |  | did decrease a topical blood flow in brain

From patent publication US4668677A, “4-phenylphthalazine derivatives, their preparation and their use as pharmaceuticals” (Mitsubishi Chemical Industries Limited, priority 1984, dated 1987)
